Source: patent publication EP0009325A1, “Erythritol cointaining anti-caries compositions” (PFIZER INC., priority 1978, dated 1980)
Like-named read-outs stand apart in the source and are kept apart here.

Key:
[1] = tested on: Streptococcus mutans strain GS-5; assay: Growth of S. mutans GS-5 in nutrient medium (Klett optical density, doubling time, final pH); type: cell-based; conditions: 0.7% concentration; 37°C; columns 1-3 of Table I
Protocol: (§1) All compounds used in the test were in 0.7% concentration. The same concentrations were used to determine acid production in a salivary system. Streptococcus mutans strain GS-5, a human cariogenic strain, was used in all cases except the salivary test system in which the endogenous flora was used.
Klett tubes containing a tryticase-soy-yeast- cysteine nutrient and fitted with septum caps werg flushed with nitrogen gas and preincubated 30 minutes at 37°C using standard sterile technicuies, then in- noculated with a 2% innoculum of a suspension of S. mutans GS-5 cells in phosphate buffer. These were then incubated at 37°C. Optical density was measured by Klett readings (red filter) at half hour intervals.
The first three columns in the table refer to effects of the compounds on the growth characteristics of a cariogenic strain of the bacteria Streptococcus mutans. Reduction of total growth (lowered final Klett), reduction of growth rate (increase in doubling time) and reduction of acid produced (increase in final pH) are the effects desired.

dextran-sucrase (DSU) = assay: Dextran-sucrase (DSU) activity of S. mutans; type: cell-based, Streptococcus mutans; conditions: 0.7% concentration; for dextran-sucrase (DSU) activity: columns 4-8 of Table I
Description: as §1
The next six columns refer to certain effects on the metabolism of the bacteria. Columns 4-8 represent measures of the activity of an enzyme (or group of enzymes) called dextran-sucrase (DSU) which is one of the principle sources of the cariogenicity of this organism. DSU converts dietary sugar into polymers which are a major ingredient of cariogenic dental plaque. Such plaque is an accumulation of these polymers, playing an essential role in caries formation and periodontal disease. Therefore, a reduction in plaque formation by means of a reduction'in DSU activity is a desired effect. In particular, a reduction in "mean specific DSU activity" - that is, amount of activity per bacterial cell - is desired since that would imply a real effect on the organisms' metabolism instead of merely a reduction in the number of cells. […] Erythritol, however, is the best in the critical measure "DSU mean specific activity (column 8). In column 9, lactic acid production is measured. Lactic acid, produced by cariogenic bacteria in response to ingestion of a meal, can increase acidity enough to dissolve tooth mineral and initiate caries. Therefore, reduction in lactic acid production is desirable. […] Finally, in the last column (10) are measures of the effect on the pH of natural saliva. In this case, the natural mixed population of bacteria is used instead of a pure culture of one strain as in the previous columns. A positive number (pH increase, corresponding to reduced acidity) is the desired result.

[2] = tested on: Streptococcus mutans strain GS-5; assay: Lactic acid production (Sigma kit, NADH absorbance); type: cell-based; conditions: 0.7% concentration; relative to "no compound" control; column 9 of Table I
Protocol: as §1
Lactic acid production was measured using the Sigma Kit for determination of lactic acid. This procedure measures the amount of lactic acid by the following reaction: [drawing 1] NAD is originally present-in excess and the increase absorbance of […] due to NADH formation becomes a measure of lactic acid originally present.
(§2) The next six columns refer to certain effects on the metabolism of the bacteria. Columns 4-8 represent measures of the activity of an enzyme (or group of enzymes) called dextran-sucrase (DSU) which is one of the principle sources of the cariogenicity of this organism. DSU converts dietary sugar into polymers which are a major ingredient of cariogenic dental plaque. Such plaque is an accumulation of these polymers, playing an essential role in caries formation and periodontal disease. Therefore, a reduction in plaque formation by means of a reduction'in DSU activity is a desired effect. […] In column 9, lactic acid production is measured. […]

endogenous flora = assay: Salivary test system: pH change of pooled saliva; type: cell-based, human saliva; conditions: final concentration 0.7%; anaerobic, 37°C, four hours; column 10 of Table I
Protocol: as §1
For the salivary test system, saliva was pooled from volunteers who had fasted three hours and the pH of the pooled saliva was noted. 4.95 ml of pool saliva was aseptically transferred to a series of sterile test tubes. […] of each compound were prepared and sterilized. 0.05 ml of each was aseptically added to the test tube of saliva to give a final concentration of 0.7%. The test tubes were incubated anaerobically ! at 37°C for four hours. The pH of each was then measured.
as §2, with “disease.” for “disease. Therefore, a reduction in plaque formation by means of a reduction'in DSU activity is a desired effect.”

[3] = tested on: enzymes responsible for dental caries formation; conditions: cited from earlier work
dental caries [4] = conditions: compared with mannitol or sorbitol; cited from earlier work
dental caries [5] = conditions: in diet, man; cited from earlier work
[6] = cited from earlier work
dental caries [7] = conditions: cited from earlier work
[8] = cited from earlier work; remark: listed apart in the source
[9] = humans; cited from earlier work

| SMILES | growth characteristics: total growth (final Klett), growth rate (doubling time), acid produced (final pH) [1] | dextran-sucrase (DSU) activity (dextran-sucrase (DSU)) | lactic acid production [2] | effect on the pH of natural saliva (endogenous flora) | formation of enzymes responsible for dental caries formation [3] | reducing the incidence of dental caries (dental caries [4]) | incidence of dental caries (dental caries [5]) | diarrhea ([6]; rats) | drinking water intake (dental caries [7]; rats) | preventing dental caries (dental caries [7]; rats) | diarrhea ([6]; rat, in vivo) | drinking water intake (dental caries [7]; rat, in vivo) | DSU mean specific activity (dextran-sucrase (DSU); activity per bacterial cell, column 8 of Table I) | saturated solution in water [8] | metabolism after oral ingestion [9] |
| --- | --- | --- | --- | --- | --- | --- | --- | --- | --- | --- | --- | --- | --- | --- | --- |
| OC[C@@H](O)[C@H](O)[C@@H](O)CO [xylitol] | best results | superior to the other substances tested | superior to the other test substances | superior to the other test substances | retarded | appreciably more effective | dramatic reduction in the incidence of dental caries | caused diarrhea | increased drinking water intake | more effective than sorbitol | – | – | – | – | – |
| OC[C@@H](O)[C@@H](O)[C@H](O)[C@@H](O)CO [sorbitol] | – | – | – | – | retarded | – | – | – | – | – | caused diarrhea | increased drinking water intake | – | – | – |
| OC[C@@H](O)[C@@H](O)CO [erythritol] | closely following | superior to the other substances tested | only substance which reduced lactic acid | best substance in the test | – | – | – | – | – | – | – | – | the best | about 38 % w/w | not significantly metabolized |
| OC[C@@H](O)[C@@H](O)[C@H](O)[C@H](O)CO [mannitol] | – | – | – | – | retarded | – | – | – | – | – | – | – | – | – | – |
